Test results published in patent publication US11129820B2, “Ferroportin-inhibitor salts” (Vifor (International) AG, priority 2017, dated 2021).
Values after ≈ are worked out from the molar mass of the structure shown. Values belong to the compound of their own block, whether it stands above or below them.

Columns and labels:
[1] = system: beta2-microglobulin deficient (b2m−/−) mice; assay: Correction of hyperferremia in beta2-microglobulin deficient mice; format: in vivo, mouse; settings: for Serum Iron Reduction (%): 60 mg/kg oral, 3 hours (##)
Procedure: Female and male homozygous b2m−/− mice are supplied from Jackson Laboratories (B6.129P2-B2mtm1Unc/J, Stock Number: 002087) at age of 6 to 7 weeks and fed standard diet (Harlan Provimi Kliba 3436) ad libitum. Age and gender matched WT C57BL/6 mice are supplied by Charles River. To study the acute effects of ferroportin (Fpn) inhibitors in iron overload b2m−/− mice are treated with compounds or the corresponding amount of vehicle at a volume of 10 ml/kg body weight. Fpn inhibitor compounds are formulated in 0.5% methylcellulose/water or 20% cremophor EL/water and dosed p.o. in mice at 50 mg/kg body weight. WT controls received only vehicle. Three hours later, mice are pre-terminally anesthetized in isoflurane chambers and blood is collected by retro-orbital bleeding. Mice are sacrificed by cervical dislocation and spleens, livers and duodena are harvested and used for biomarker analysis. All experiments are performed in compliance with license approved by the responsible veterinarian authorities. Serum is isolated by centrifugation of blood into gel-containing microtainers (BD Biosciences) and serum iron is determined by the MULTIGENT Iron assay (Abbott Diagnostics, Cat. 6K95). Four to nine mice per group are used and one-way ANOVA with Bonferroni's multiple comparison test is applied to analyze the statistical differences between the experimental groups.
Blood is collected 1 (#) or 3 (##) hours after oral administration of the indicated doses of Fpn inhibitors to beta2-microglobulin deficient mice and serum iron concentrations are measured. Relative reduction (%) of serum iron levels are shown, which were calculated by subtracting the average of serum iron values of animals dosed with the Fpn inhibitor from that of vehicle-treated animals. The difference in average serum iron values between vehicle and compound treated groups was then divided by the average of serum iron of the vehicle control group and listed as percentage. Values are listed separately for female (♀) and male (♂) animals, because a marked sex-dependent difference in efficacy was noted. Statistically significant (2-way ANOVA with Bonferroni post test) differences observed between compound-treated and vehicle-treated groups are indicated (*** p<0.001; ** p<0.01, p<0.05).

ferroportin (Fpn) = target: T1, ferroportin (Fpn) (Mus musculus, UniProt Q9JHI9); assay: Ferroportin Ubiquitination and Degradation (J774, immunoprecipitation, Western blot); format: cell-based; design: key: +: comparable to hepcidin; −: no effect; +/−: intermediate effect; settings: J774 cells, ca. 10-fold IC50 concentration, visual inspection of Western blots
T1 construct: endogenous in cells; host or cells: J774 mouse macrophage cell line (DSMZ, Cat. ACC170), induced with 200 uM Fe(III)-NTA
T1 sequence (Q9JHI9 1-570): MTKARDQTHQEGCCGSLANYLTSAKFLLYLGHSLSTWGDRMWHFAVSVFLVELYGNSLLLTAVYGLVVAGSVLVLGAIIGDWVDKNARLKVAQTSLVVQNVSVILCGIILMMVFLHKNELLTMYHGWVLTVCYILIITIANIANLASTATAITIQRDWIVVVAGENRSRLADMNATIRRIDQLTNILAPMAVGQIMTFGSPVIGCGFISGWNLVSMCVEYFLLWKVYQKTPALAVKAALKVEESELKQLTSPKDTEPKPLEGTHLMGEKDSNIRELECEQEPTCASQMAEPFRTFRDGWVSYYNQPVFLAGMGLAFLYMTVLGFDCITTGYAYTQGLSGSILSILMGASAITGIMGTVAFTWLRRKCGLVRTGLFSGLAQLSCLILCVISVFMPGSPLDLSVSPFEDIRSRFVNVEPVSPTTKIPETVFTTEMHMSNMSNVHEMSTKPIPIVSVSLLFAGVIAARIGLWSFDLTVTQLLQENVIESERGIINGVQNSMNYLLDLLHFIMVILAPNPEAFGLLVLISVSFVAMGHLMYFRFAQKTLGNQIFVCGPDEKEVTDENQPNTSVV
Procedure: Exposure of cells expressing ferroportin (Fpn) to hepcidin is known to trigger ubiquitination and subsequent internalization and degradation of Fpn (Qiao, 2012). The potential of Fpn inhibitors to induce Fpn ubiquitination and degradation is investigated with an immunoprecipitation assay using the J774 mouse macrophage cell line which expresses Fpn upon treatment with iron.
Cells are incubated with synthetic human hepcidin (Bachem, Cat. H-5926) or Fpn inhibitor compounds for 10 min or 120 min. Cells are washed and lysed with ice-cold lysis buffer (Pierce, Life Technoligies, Cat. 87787) including 1×HALT protease inhibitor cocktail (Life technologies, Cat. 78429) and 10 mM iodoacetamide (Sigma, Cat. 16125) to stabilize ubiquitinated proteins. Immunoprecipitation is done using the Pierce Classic IP Kit (Life Technologies, Cat. 26146) following the manufacturer's protocol. Briefly, 2 mg protein in 1.25 ml IP lysis buffer is incubated by mixing for 1 h at 4° C. with control agarose beads to pre-clear the lysate and reduce nonspecific signal. Unbound lysate is then incubated overnight with 12 μg per reaction of the affinity purified anti-Fpn antibody F308 that was raised against a GST fusion protein of mouse Fpn amino acids 224-308. Immune complexes are captured by pipetting 14 μl settled Pierce Protein A/G Plus Agarose beads (Life Technologies, Cat. 20423) per reaction and the slurry is incubated for 1.5 h at 4° C. with gentle end-over-end mixing. The beads are washed and immune complexes are eluted directly with 75 μl SDS NuPAGE LDS sample buffer (Life Technologies, Cat. NP0007) containing DTT (Life Technologies, Cat. NP0009).
After immunoprecipitation samples are analyzed by Western blotting using a rabbit anti-mouse MTP1 antiserum (Alpha Diagnostic International, Cat. MTP11-A) and a mouse anti-mono- and polyubiquitinylated conjugates monoclonal antibody (Enzo Lifesciences, Cat. BML-PW8810) for detection of ferroportin and ubiquitin, respectively. Mouse monoclonal anti-rabbit IgG light chain (Abcam, Cat. ab99697) and anti-mouse IgG H&L (Abcam, Cat. ab6789) HRP conjugates are used as secondary antibodies.

Hbb th3/+ mice = assay: Mouse model of β-thalassemia intermedia (Hbb th3/+ mice); format: in vivo; settings: for Decrease in RDW by 20/60 mg/kg compound / Decrease in serum iron by 20/60 mg/kg compound: % change to vehicle; for Correction of anemia at day 20-48 by 20/60 mg/kg: hemoglobin difference to vehicle; for Decrease in serum iron by 20/60 mg/kg compound: dosed for 3 h
Procedure: The efficacy of Fpn inhibitors is investigated using a mouse model of transfusion-independent β-thalassemia. Mice with heterozygous deletion of β 1 and β 2 globin genes (called Hbb th3/+ mice) develop transfusion-independent anemia, ineffective erythropoiesis, splenomegaly and secondary iron overload in spleen, liver and kidneys. […] Hbb th3/+ mice are dosed twice daily with either compound at 20 or 60 mg/kg or with methylcellulose (10 ml/kg, Sigma, Cat. 274429) as a vehicle. Between both doses mice have access to drinking water supplemented with 1 mM ^58Fe(II)-sulfate (Vifor Pharma, Batch No. ROR 3096) and 10 mM ascorbic acid (Sigma, Cat. 795437) for 6 h. The concentration of ^58Fe(II)-Sulfate supplied in the drinking water is adjusted to substitute for intake of standard rodent diet with iron content of 250 ppm. Water without ^58Fe(II)-Sulfate and ascorbic acid is provided during the remaining 18 h. Dosing of Fpn inhibitors or vehicle followed by exposure to iron-containing water is repeated for 20 to 46 days in individual experiments.
Additional hematologic parameters are measured in terminal blood using automated blood cell analyzer.
The inefficient erythropoiesis of Hbb th3/+ mice causes excessive proliferation of erythroid precursors in spleen, leading to splenomegaly.
Elevated erythropoietin levels in Hbb th3/+ mice induce overexpression of erythroferrone, an erythroid regulator hormone known to suppress hepcidin (Kautz L. et al, Nat. Genet., 2014). […] Erythroferrone is produced by erythrocyte precursors proliferating massively in spleens of Hbb th3/+ mice as a consequence of extramedullar erythropoiesis.
Increased iron demand due to inefficient erythropoiesis and chronically low hepcidin levels in patients with thalassemia causes organ iron loading and associated morbidities, such as hepatocellular carcinoma and heart failure (Rivella S. Haematologica, 2015). Hbb th3/+ mice absorb excessive amounts of iron as a consequence of inadequately low hepcidin levels relative to the high iron content in liver, spleen and kidney and increased ferroportin expression in duodenum (Gardenghi S., Blood, 2007).
Additionally, reactive oxygen species (ROS) are detected in bone marrow cells using a fluorescent indicator, CM-H2DCFDA (Thermo Fisher Scientific, Cat. C6827).
Data are expressed as difference to the vehicle control group for hemoglobin and as % change to the vehicle control group for all other parameter shown

[2] = Approximate solubility of the starting compound in solvents and solvent mixtures; format: physicochemical; settings: thermodynamic from solid
Procedure: Approximate solubilities were determined by incremental addition of solvent to about 10 mg the compound. […] Due to the experimental error inherent in this method, the solubility values are intended to be regarded as rough estimates and are to be used solely for the design of crystallization experiments.
Approximate solubilities were determined by incremental addition of solvent to about 10 mg of the compound. […] Due to the experimental error inherent in this method, the solubility values were regarded as rough estimates and were only used for the design of crystallization experiments.
The approximate solubility of SP236-FB-P1 was determined in a number of different solvents and solvent mixtures to help guide the salt/co-crystal experiments.

naïve WT C57BL/6 mice = assay: Hypoferremia in naïve mice; format: in vivo, mouse; settings: injection in WT naïve mice, maximal effect at 3-4 hours post treatment
Procedure: Injection of synthetic hepcidin in wild-type (WT) naïve mice results in a reduction of serum iron levels (40-50% from the vehicle control) with a maximal effect at 3-4 hours post treatment (Rivera, 2005; FIG. 12A).
Female C57BL/6 mice (Janvier, France) at age of 9 weeks are fed a standard diet (Harlan Provimi Kliba 3436) and treated per os (p.o.) with compounds or the corresponding amount of vehicle at a volume of 10 ml/kg body weight. Fpn inhibitors are formulated in 0.5% methylcellulose/water or 20% cremophor EL/water and dosed p.o. in mice at 10, 30 or 100 mg/kg body weight. Three hours later, mice are pre-terminally anesthetized in isoflurane chambers and blood is collected by retro-orbital bleeding. Mice are sacrificed by cervical dislocation and spleens, livers and duodena were harvested and used for biomarker analysis. All experiments are conducted in compliance with the license approved by the responsible veterinarian authorities. Serum is isolated by centrifugation of blood into gel-containing microtainers and serum iron is determined by the MULTIGENT Iron assay (Abbott Diagnostics, 6K95). Eight mice per group are used and one-way ANOVA with Bonferroni's multiple comparison test is performed to analyze the statistical differences between the experimental groups.
Table 6 Efficacy of Fpn inhibitors tested in the naïve mouse hypoferremia model. Serum iron reduction induced by selected ferroportin inhibitors dosed p.o. in naïve WT C57BL/6 mice at 10, 30 and 100 mg/kg. Relative serum iron reduction at 3 h after dosing was calculated by subtracting the average of serum iron values of animals dosed with the Fpn inhibitor from that of vehicle-treated animals. The difference in average serum iron values between vehicle and compound treated groups was then divided by the average of serum iron of the vehicle control group and listed as percentage.

Compound: O=C(NCc1ncccc1F)c1csc(CCNCCc2nc3ccccc3[nH]2)n1 [Example Compound No. 94]
Correction of elevated serum iron, in words ([1]; b2m−/− mice, 50 mg/kg p.o., 3 h): corrected the elevated serum iron to the levels observed in WT controls
Serum Iron Reduction (%) ([1]; female ♀): 47%
Serum Iron Reduction (%) ([1]; male ♂): 67%

Fpn Degradation (120 min.) (ferroportin (Fpn)): +
Fpn Ubiquitination (10 min.) (ferroportin (Fpn)): +/−
Compound: O=C(NCc1ncccc1F)c1coc(CCNCc2nc3ccccc3[nH]2)n1 [Example Compound No. 126]

Compound: O=C(NCc1ncccc1F)c1coc(CCNCCc2nc3ccccc3[nH]2)n1 [Example Compound No. 127]
Decrease in RDW by 20/60 mg/kg compound (Hbb th3/+ mice; 20 mg/kg twice daily for 20-46 days): 19%
Correction of anemia at day 20-48 by 20/60 mg/kg (Hbb th3/+ mice; 20 mg/kg twice daily): 12 g/L
Decrease in serum iron by 20/60 mg/kg compound (Hbb th3/+ mice; 20 mg/kg): 68%
Decrease in RDW by 20/60 mg/kg compound (Hbb th3/+ mice; 60 mg/kg twice daily for 20-46 days): 25%
Correction of anemia at day 20-48 by 20/60 mg/kg (Hbb th3/+ mice; 60 mg/kg twice daily): 20 g/L
Decrease in serum iron by 20/60 mg/kg compound (Hbb th3/+ mice; 60 mg/kg): 81%

Compound: O=C(NCc1ncccc1F)c1coc(CCNCCc2nc3ccccc3[nH]2)n1 [SP236-FB-P1]
solubility ([2]; aqueous with cosolvent or surfactant or cyclodextrin, 2-propanol-water 1:3): 39 to 47 mg/mL (≈ 95.5 to 115 mM)
solubility ([2]; aqueous with cosolvent or surfactant or cyclodextrin, Methanol-water 1:1): > 100 mg/mL
solubility ([2]; organic solvent or mixture, 2-Propanol): 80 to 120 mg/mL (≈ 196 to 294 mM)
solubility ([2]; organic solvent or mixture, Acetonitrile): > 200 mg/mL
solubility ([2]; organic solvent or mixture, DMSO): > 100 mg/mL
solubility ([2]; organic solvent or mixture, Dioxane): > 100 mg/mL
solubility ([2]; organic solvent or mixture, Ethanol): > 100 mg/mL
solubility ([2]; organic solvent or mixture, Ethyl acetate): > 100 mg/mL
solubility ([2]; organic solvent or mixture, Ethyl acetate-cyclohexane 3:1): 5 to 7 mg/mL (≈ 12.2 to 17.1 mM)
solubility ([2]; organic solvent or mixture, Heptane): < 1 mg/mL
solubility ([2]; organic solvent or mixture, Methanol): > 200 mg/mL
solubility ([2]; organic solvent or mixture, THF): > 200 mg/mL
solubility ([2]; organic solvent or mixture, THF-heptane 3:1): > 200 mg/mL
solubility ([2]; Water): ~15 mg/mL (≈ 36.7 mM)

Fpn Degradation (120 min.) (ferroportin (Fpn)): +
Fpn Ubiquitination (10 min.) (ferroportin (Fpn)): +
Compound: CC[C@H](C)[C@@H]1NC(=O)[C@@H](NC(=O)[C@@H](NC(=O)[C@@H]2CCCN2C(=O)[C@H](Cc2ccccc2)NC(=O)[C@H](Cc2c[nH]cn2)NC(=O)[C@@H](NC(=O)[C@@H](N)CC(=O)O)[C@@H](C)O)[C@@H](C)CC)CSSC[C@@H](C(=O)N[C@@H](CCCCN)C(=O)N[C@H](C(=O)O)[C@@H](C)O)NC(=O)[C@@H]2CSSC[C@@H]3NC(=O)[C@@H]4CSSC[C@H](NC(=O)[C@H](Cc5ccccc5)NC1=O)C(=O)N[C@@H](CSSC[C@H](NC(=O)[C@H](CCCCN)NC(=O)[C@H](CO)NC(=O)[C@H](CCCNC(=N)N)NC(=O)[C@H](Cc1c[nH]cn1)NC3=O)C(=O)NCC(=O)N[C@@H](CCSC)C(=O)N2)C(=O)NCC(=O)N4 [hepcidin, reference compound]
Reduction of serum iron levels from the vehicle control (naïve WT C57BL/6 mice): 40-50%
